Measured values as given in patent US20200317784A1, “METHODS AND COMPOSITIONS FOR TREATING CANCER BY MODIFYING MULTIPLE ARMS OF THE IMMUNE SYSTEM” (BioXcel Therapeutics, Inc., priority 2017, published 2020).

Assays:
melanoma = melanoma patients; Postow et al. 2015; cited from earlier work
[1] = system: Ly6G+ cells (tumoricidal neutrophils); assay: IHC of neutrophil infiltrate in Pan02 tumor samples; conditions: Day 8; compared to vehicle and PD-1 antagonist alone
Protocol: Tumor samples from the study groups were analyzed for infiltration of immune cells. […] The data was analyzed using GraphPad Prism 5. p<0.05 was statistically significant (*, p<0.05; **, p<0.01; ***, p<0.001).

Pan02 tumor cells = assay: Anti-tumor efficacy in Pan02 syngeneic mouse model of pancreatic carcinoma; type: in vivo; conditions: Pan02 s.c., C57BL/6 mice
Source text: Six to eight-week-old female C57BL/6 mice were used in the studies as supplied by Beijing Vital River Laboratory Animal Technology Co., Ltd. Mice received food and water ad libitum. The study protocol and the procedures involving the care and use of animals were reviewed and approved by the Institutional Animal Care and Use Committee (IACUC) to ensure compliance with the regulations of the Association for Assessment and Accreditation of Laboratory Animal Care (AAALAC).
Stock solutions of the PD-1 antagonist at 1 mg/ml concentrations were prepared and kept at 4° C. prior to use. Dosing solutions of the PD-1 antagonist were prepared freshly at a concentration of 1 mg/ml before every administration in sterile phosphate buffered saline (PBS), adjusted to pH 7.0, and administered at a dose of 10 mg/kg intraperitoneally (i.p) per 20 g mouse. […] Talabostat mesylate was obtained from a commercial source, and prepared freshly at a working concentration of 0.1 mg/ml before every administration in sterile phosphate buffered saline (pH 7.0), maintained at 4° C., and administered perorally (p.o.) at a total dose of 20 μg per 20 g mouse.
The tumor cells were routinely sub-cultured twice per week bytrypsin-EDTA treatment. The cells in anexponential growth phase were harvested and counted for tumor inoculation. […] The date of tumor cell inoculation was denoted as Day 0.
The dosing of the agents was started on day 5 after tumor inoculation and continued until Day 28 after tumor inoculation.
Body weight (in grams), and tumor volumes (in mm^3) were measured on Days 5, 8, 12, 15, 19, 22, 26 and 29. […] Tumor volume, expressed in mm^3, was measured with a calliper.
Data related to tumor volume are presented as mean and the standard error of the mean (SEM). Statistical analyses were conducted using Student's t-test. P<0.05 and P<0.001 were considered statistically significant.
% Tumor reduction=(Mean tumor volume^vehicle control−Mean tumor volume^treatmet_group)/Mean tumor volume^vehicle control×100Table 1B. Results

| Compound | response rate (melanoma) | Ly6G+ cells in tumor (IHC) [1] | % Tumor Reduction compared to vehicle control (Pan02 tumor cells; Day 19 after tumor inoculation) | % Tumor Reduction compared to vehicle control (Pan02 tumor cells; Day 22 after tumor inoculation) | % Tumor Reduction compared to vehicle control (Pan02 tumor cells; Day 26 after tumor inoculation) | % Tumor Reduction compared to vehicle control (Pan02 tumor cells; Day 29 after tumor inoculation) |
| --- | --- | --- | --- | --- | --- | --- |
| ipilimumab: human monoclonal anti-CTLA-4 antibody | 11% |  |  |  |  |  |
| CC(C)[C@H](N)C(=O)N1CCC[C@H]1B(O)O.CS(=O)(=O)O [Talabostat mesylate, [(2R)-1-[(2S)-2-amino-3-methylbutanoyl]pyrrolidin-2-yl]boronic acid; methanesulfonic acid] |  | significant increase | 61.23% | 58.18% | 65.42% | 65.61% |
| nivolumab | 32% |  |  |  |  |  |
